The target of experiment [1] is S. aureus Alpha hemolysin (Staphylococcus aureus, UniProt P09616). Description: cell-based.
The target in experiment [2] is hemolysin alpha from Staphylococcus aureus (Staphylococcus aureus, UniProt P09616). Description: cell-based.

Here are results for 13 compounds from patent publication US20260217703A1, “INHIBITORS OF a-HEMOL YSIN OF STAPHYLOCOCCUS AUREUS” (HELMHOLTZ-ZENTRUM FÜR INFEKTIONSFORSCHUNG GMBH, priority 2022, published 2026).

hemolysin alpha from Staphylococcus aureus, sequence (P09616 27-319 limits assumed): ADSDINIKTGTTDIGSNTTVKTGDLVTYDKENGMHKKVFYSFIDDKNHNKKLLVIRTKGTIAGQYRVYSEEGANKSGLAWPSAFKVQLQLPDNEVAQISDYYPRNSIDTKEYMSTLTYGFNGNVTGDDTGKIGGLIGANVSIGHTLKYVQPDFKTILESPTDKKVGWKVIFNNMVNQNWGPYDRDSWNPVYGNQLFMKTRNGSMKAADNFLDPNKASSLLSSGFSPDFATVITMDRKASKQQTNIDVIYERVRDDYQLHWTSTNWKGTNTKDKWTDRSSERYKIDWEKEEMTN
S. aureus Alpha hemolysin, sequence (P09616 27-319 limits assumed): as above

In general, IC50 refers to the concentration that inhibits the measured activity by half. Low readings indicate greater potency in that assay, high ones weaker potency in that assay. Turning to `Cc1nc2ccc(-c3ccc(NS(=O)(=O)c4ccc5[nH]c(=O)c(=O)[nH]c5n4)cc3Cl)cc2o1` [Compound 28, N-(3-chloro-4-(2-methylbenzo[d]oxazol-6-yl)phenyl)-2,3-dioxo-1,2,3,4-tetrahydropyrido[2,3-b]pyrazine-6-sulfonamide], the IC50 in experiment [1] is 100 to 1000 nM; in experiment [2], below 30 nM.
For the compound `O=c1[nH]c2ccc(S(=O)(=O)Nc3ccc(-c4ccc(F)cc4)c(Cl)c3)nc2[nH]c1=O` [Compound 29, N-(2-chloro-4′-fluoro-[1,1′-biphenyl]-4-yl)-2,3-dioxo-1,2,3,4-tetrahydropyrido[2,3-b]pyrazine-6-sulfonamide], the figures for the IC50 in experiment [1] and in experiment [2] were 1000 to 6000 nM and 100 to 1000 nM, respectively.
On to `Cc1nc2cc(-c3ncc(NS(=O)(=O)c4ccc5[nH]c(=O)c(=O)[nH]c5n4)cc3Cl)ccc2o1` [Compound 31, N-(5-chloro-6-(2-methylbenzo[d]oxazol-5-yl)pyridin-3-yl)-2,3-dioxo-1,2,3,4-tetrahydropyrido[2,3-b]pyrazine-6-sulfonamide], for which the IC50 in experiment [1] is 1000 to 6000 nM; in experiment [2], 100 to 1000 nM.
On to `Cc1cc2[nH]c(=O)c(=O)[nH]c2nc1S(=O)(=O)Nc1ccc(-c2ccc(F)cc2)c(C(F)(F)F)c1` [Compound 32, N-(4′-fluoro-2-(trifluoromethyl)-[1,1′-biphenyl]-4-yl)-7-methyl-2,3-dioxo-1,2,3,4-tetrahydropyrido[2,3-b]pyrazine-6-sulfonamide], for which the IC50 in experiment [1] and in experiment [2] was 100 to 1000 nM throughout.
For `Cc1cc(NS(=O)(=O)c2nc3[nH]c(=O)c(=O)[nH]c3cc2C)ccc1-c1ccc(F)cc1` [Compound 33, N-(4′-fluoro-2-methyl-[1,1′-biphenyl]-4-yl)-7-methyl-2,3-dioxo-1,2,3,4-tetrahydropyrido[2,3-b]pyrazine-6-sulfonamide], the results for the IC50 in experiment [1] and in experiment [2] were 30 to 100 nM and 100 to 1000 nM, respectively.
With `CC(C)c1cc2[nH]c(=O)c(=O)[nH]c2nc1S(=O)(=O)Nc1ccc(OC(F)(F)F)cc1` [Compound 34, 7-isopropyl-2,3-dioxo-N-(4-(trifluoromethoxy)phenyl)-1,2,3,4-tetrahydropyrido[2,3-b]pyrazine-6-sulfonamide], the IC50 in experiment [1] was 100 to 1000 nM; in experiment [2], 30 to 100 nM.
Consider `Cc1nc2cc(-c3ncc(NS(=O)(=O)c4nc5[nH]c(=O)c(=O)[nH]c5cc4C)cc3Cl)ccc2o1` [Compound 35, N-(5-chloro-6-(2-methylbenzo[d]oxazol-5-yl)pyridin-3-yl)-7-methyl-2,3-dioxo-1,2,3,4-tetrahydropyrido[2,3-b]pyrazine-6-sulfonamide], for which the IC50 in experiment [1] was 100 to 1000 nM; in experiment [2], below 30 nM.
As to `Cc1cc2[nH]c(=O)c(=O)[nH]c2nc1S(=O)(=O)Nc1cnc(-c2ccc3c(c2)NC(=O)CO3)c(Cl)c1` [Compound 36, N-(5-chloro-6-(3-oxo-3,4-dihydro-2H-benzo[b][1,4]oxazin-6-yl)pyridin-3-yl)-7-methyl-2,3-dioxo-1,2,3,4-tetrahydropyrido[2,3-b]pyrazine-6-sulfonamide], the IC50 in experiment [1] lay within 1000 to 6000 nM; in experiment [2], 30 to 100 nM.
Consider `Cc1cc2[nH]c(=O)c(=O)[nH]c2nc1S(=O)(=O)Nc1ccc(-c2ccc3oc(C(C)C)nc3c2)c(Cl)c1` [Compound 37, N-(3-chloro-4-(2-isopropylbenzo[d]oxazol-5-yl)phenyl)-7-methyl-2,3-dioxo-1,2,3,4-tetrahydropyrido[2,3-b]pyrazine-6-sulfonamide], for which the IC50 was 100 to 1000 nM in experiment [1] and below 30 nM in experiment [2].
Turning to `Cc1nc2cc(-c3ccc(NS(=O)(=O)c4nc5[nH]c(=O)c(=O)[nH]c5cc4C)cc3C(F)(F)F)ccc2o1` [Compound 38, 7-methyl-N-(4-(2-methylbenzo[d]oxazol-5-yl)-3-(trifluoromethyl)phenyl)-2,3-dioxo-1,2,3,4-tetrahydropyrido[2,3-b]pyrazine-6-sulfonamide], the IC50 was 100 to 1000 nM in experiment [1] and below 30 nM in experiment [2].
For `Cc1nc2cc(-c3ccc(NS(=O)(=O)c4nc5[nH]c(=O)c(=O)[nH]c5cc4C)cc3Cl)cnc2o1` [Compound 39, N-(3-chloro-4-(2-methyloxazolo[5,4-b]pyridin-6-yl)phenyl)-7-methyl-2,3-dioxo-1,2,3,4-tetrahydropyrido[2,3-b]pyrazine-6-sulfonamide], in that order: 30 to 100 nM and below 30 nM.
The like results for `Cc1nc2cc(-c3ccc(NS(=O)(=O)c4nc5[nH]c(=O)c(=O)[nH]c5cc4C)cc3C)ccc2o1` [Compound 40, 7-methyl-N-(3-methyl-4-(2-methylbenzo[d]oxazol-5-yl)phenyl)-2,3-dioxo-1,2,3,4-tetrahydropyrido[2,3-b]pyrazine-6-sulfonamide] were, in that order, 30 to 100 nM and below 30 nM.
Take `Cc1cc2[nH]c(=O)c(=O)[nH]c2nc1S(=O)(=O)Nc1ccc(-c2ccc3oc(C4CC4)nc3c2)c(Cl)c1` [Compound 41, N-(3-chloro-4-(2-cyclopropylbenzo[d]oxazol-5-yl)phenyl)-7-methyl-2,3-dioxo-1,2,3,4-tetrahydropyrido[2,3-b]pyrazine-6-sulfonamide]: the IC50 was 30 to 100 nM in experiment [1] and below 30 nM in experiment [2].
